Test results: US20260199492A1, “PSD-95 DOMAIN INHIBITOR, AND PREPARATION METHOD THEREFOR AND USE THEREOF” (SHENZHEN SALUBRIS PHARMACEUTICALS CO., LTD, priority 2023, published 2026)
pIC50: −log10 of the molar value. Square brackets hold non-standard residues; d marks the D form. Peptide text beside a SMILES is read from it. Arg(Me) = CNC(=N)NCCC[C@H](N)C(=O)O

Tests used:
[1] = biological target: PDZ1-2 of PSD95 (Homo sapiens, UniProt P78352); assay: Fluorescence polarization competition binding assay of PDZ1-2 with probe 5-FAM-NA-1
Chain of PDZ1-2 of PSD95 (P78352 61-249 limits assumed): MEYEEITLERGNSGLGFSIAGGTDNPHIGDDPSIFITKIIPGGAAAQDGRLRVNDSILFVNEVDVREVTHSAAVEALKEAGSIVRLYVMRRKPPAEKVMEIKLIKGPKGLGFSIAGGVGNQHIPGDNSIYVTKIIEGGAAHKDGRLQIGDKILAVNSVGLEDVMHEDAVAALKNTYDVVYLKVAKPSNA

[2] = In vitro plasma stability experiment (compounds), without or with tPA; details: human, 37° C., initial concentration 10 μM
Protocol: (§1) • Plasma: Human plasma is commercially available. • Reagents: DMSO (dimethyl sulfoxide), disodium hydrogen phosphate, sodium dihydrogen phosphate, methanol, formic acid, and propranolol (internal standard) are commercially available. • Instrument: AB SCIEX QTRAP 5500+.
(§2) 5 μL of stock solution (10 mM) was diluted with 495 μL of 0.05 M sodium phosphate buffer to 100 μM of dosing solution. The final concentration of tested drug for incubation was 10 μM.
(§3) A certain volume (e.g., 27 μL or 24 μL) of plasma was added into a 96-well plate. An appropriate volume of the internal standard working solution (e.g., 150 μL) was immediately added to precipitate. […] This was performed in duplicate.
(§4) Then, an appropriate amount of plasma (e.g., 27 μL or 24 μL) was added at the designed time points (e.g., 5 min, 15 min, 30 min, 60 min, and 120 min, etc.), and the parallel replicate wells were performed at each time point. […] The reaction was terminated by adding an appropriate amount of internal standard working solution (e.g., 150 μL) at the end of the time, and the mixture was mixed thoroughly.
(§5) The mixture was centrifuged at 4000 rpm for 15 min. A certain amount of the supernatant was taken, mixed with a certain amount of water, and then subjected to LC/MS/MS analysis. LC-MS detection conditions were as follows: • Chromatography column: YMC Triart C18, 50*3.0 mm, 2.1 μm. • Mobile phase: Gradient elution was performed using water (0.1% formic acid)-acetonitrile according to the table below.
(§6) The relative content of drug at each time point was calculated using the initial 0 point as 100%. The half-life of the drug was calculated by plotting “relative drug content” against “incubation time” using GraphPad Prism 5 software.

[3] = in vitro; details: human, plasma
Protocol: as §1, §2, §3, §4, §5, §6

[4] = Toxicological experiment: serum UREA and CREA after 5 days of i.v. dosing; type: in vivo, SD rats
Protocol: The compounds of Examples 1-8 were accurately weighed into suitable EP tubes, and the vehicle (saline) was added to formulate a solution of a concentration of 15 mg/mL. The solution was filtered using a 0.2 μm filter for future use.
A total of 18 male SD rats of 6-7 weeks of age were used for test. After the animal quarantine and acclimatization period, the animals were randomly divided into 6 groups according to their body weights measured before grouping, vehicle control group (saline) as well as example compounds groups, 3 animals/group. Using the above prepared solution, the animal was administered intravenously via the tail vein at a dosage of 30 mg/kg and a dosing volume of 2 mL/kg. The dosing volume for each animal was calculated according to the body weight. Administration was performed once daily for 5 consecutive days. After 2 h of administration on day 5, the animals were deeply anesthetized by intraperitoneal injection of sodium pentobarbital. The thoracic cavity was opened, and blood was collected from the abdominal aorta into blood collection tubes containing inert separation gel and coagulant. The serum was collected by centrifugation (4000 rpm, 10 min) after about 1 h of resting. The concentrations of UREA and CREA in the serum were detected using a biochemical analyzer. The percentage change of each example compound relative to the vehicle control group was calculated using the formula: %=(Concentration of example compound−Concentration of vehicle control group)/Concentration of vehicle control group.

[5] = In vitro stability experiment of cell-penetrating peptides in human plasma
Protocol: as §2, §3, §4, §5, §6

[6] = With tPA T1/2, human plasma, with rt-PA […]
[7] = Without tPA T1/2, human plasma, without tPA
[8] = male SD rats, 30 mg/kg i.v. once daily for 5 days, serum 2 h after dosing on day 5
[9] = plasma, Without tPA T1/2, cell-penetrating peptide, human plasma, initial concentration 10 μM, without tPA
[10] = plasma, With tPA T1/2, cell-penetrating peptide, human plasma, initial concentration 10 μM, with tPA

**Q.** With CC[C@H](C)[C@H](NC(=O)[C@H](CO)NC(=O)[C@H](CO)NC(=O)[C@H](CC(C)C)NC(=O)[C@@H](CCCCN)NC(=O)[C@H](CCCNC(=N)N)NC(=O)[C@H](CCCNC(=N)N)NC(=O)[C@H](CCCNC(=N)NC)NC(=O)[C@H](CCC(N)=O)NC(=O)[C@@H](CCCNC(=N)N)NC(=O)[C@H](CCCNC(=N)N)NC(=O)[C@H](CCCCN)NC(=O)[C@H](CCCCN)NC(=O)[C@](C)(CCCNC(=N)N)NC(=O)CNC(=O)[C@@H](N)Cc1ccc(O)cc1)C(=O)N[C@@H](CCC(=O)O)C(=O)N[C@@H](CO)C(=O)N[C@@H](CC(=O)O)C(=O)N[C@H](C(=O)O)C(C)C (relative stereo) [Compound I13] as the compound, how does the pIC50 [1] read?
**A.** 5.20

**Q.** And the half-life at 10 μM [2, 6]?
**A.** 14.5 h

**Q.** And the half-life at 10 μM [2, 7]?
**A.** 10.7 h

**Q.** With CC[C@H](C)[C@H](NC(=O)[C@H](CO)NC(=O)[C@H](CO)NC(=O)[C@H](CC(C)C)NC(=O)[C@@H](CCCCN)NC(=O)[C@H](CCCNC(=N)N)NC(=O)[C@H](CCCNC(=N)N)NC(=O)[C@H](CCCNC(=N)NC)NC(=O)[C@H](CCC(=O)O)NC(=O)[C@@H](CCCNC(=N)N)NC(=O)[C@H](CCCNC(=N)N)NC(=O)[C@H](CCCCN)NC(=O)[C@H](CCCCN)NC(=O)[C@](C)(CCCNC(=N)N)NC(=O)CNC(=O)[C@@H](N)Cc1ccc(O)cc1)C(=O)N[C@@H](CCC(=O)O)C(=O)N[C@@H](CO)C(=O)N[C@@H](CC(=O)O)C(=O)N[C@H](C(=O)O)C(C)C (relative stereo) [Compound I15] as the compound, how does the pIC50 [1] read?
**A.** 5.10

**Q.** What about the half-life ([3]; With tPA T1/2) of the same compound?
**A.** 27.2 h

**Q.** What about the half-life ([3]; Without tPA T1/2) of the same compound?
**A.** > 33.3 h

**Q.** Which half-life ([3]; With tPA T1/2, human plasma, 37° C., initial concentration 10 μM, with rt-PA […]) does the source give for CC[C@H](C)[C@H](NC(=O)CCOCCOCCN(CCOCCOCCC(=O)N[C@H](C(=O)N[C@@H](CCC(=O)O)C(=O)N[C@H](C(=O)N[C@@H](CC(=O)O)C(=O)N[C@H](C(=O)O)C(C)C)[C@@H](C)O)[C@@H](C)CC)C(=O)[C@H](CCCNC(=N)N)NC(=O)[C@H](CCCNC(=N)N)NC(=O)[C@@H](CCCNC(=N)N)NC(=O)[C@H](CCC(N)=O)NC(=O)[C@@H](CCCNC(=N)N)NC(=O)[C@H](CCCNC(=N)N)NC(=O)[C@H](CCCCN)NC(=O)[C@H](CCCCN)NC(=O)[C@@H](CCCNC(=N)N)NC(=O)CNC(=O)[C@@H](N)Cc1ccc(O)cc1)C(=O)N[C@@H](CCC(=O)O)C(=O)N[C@H](C(=O)N[C@@H](CC(=O)O)C(=O)N[C@H](C(=O)O)C(C)C)[C@@H](C)O [Compound 43] here?
**A.** 20.5 h

**Q.** What about the half-life ([3]; Without tPA T1/2, human plasma, 37° C., initial concentration 10 μM, without tPA) of the same compound?
**A.** > 33.3 h

**Q.** What does the source list for CC[C@H](C)[C@H](NC(=O)CCOCCOCCN(CCOCCOCCC(=O)N[C@H](C(=O)N[C@@H](CCC(=O)O)C(=O)N[C@H](C(=O)N[C@@H](CC(=O)O)C(=O)N[C@H](C(=O)O)C(C)C)[C@@H](C)O)[C@@H](C)CC)C(=O)[C@H](CCCNC(=N)N)NC(=O)[C@H](CCCNC(=N)N)NC(=O)[C@@H](CCCNC(=N)N)NC(=O)[C@H](CCC(=O)O)NC(=O)[C@@H](CCCNC(=N)N)NC(=O)[C@H](CCCNC(=N)N)NC(=O)[C@H](CCCCN)NC(=O)[C@H](CCCCN)NC(=O)[C@@H](CCCNC(=N)N)NC(=O)CNC(=O)[C@@H](N)Cc1ccc(O)cc1)C(=O)N[C@@H](CCC(=O)O)C(=O)N[C@H](C(=O)N[C@@H](CC(=O)O)C(=O)N[C@H](C(=O)O)C(C)C)[C@@H](C)O [Compound 65]?
**A.** CREA, percentage change compared to vehicle control group [4, 8]: −3.3%; UREA, percentage change compared to vehicle control group [4, 8]: 23.7%; half-life at 10 μM [2, 6]: 10.5 h; half-life at 10 μM [2, 7]: > 33.3 h

**Q.** Which results are given for CC[C@H](C)[C@H](NC(=O)[C@H](CO)NC(=O)[C@H](CO)NC(=O)[C@H](CC(C)C)NC(=O)[C@@H](CCCCN)NC(=O)[C@H](CCCNC(=N)N)NC(=O)[C@H](CCCNC(=N)N)NC(=O)[C@H](CCCNC(=N)NC)NC(=O)[C@H](CCC(=O)O)NC(=O)[C@@H](CCCNC(=N)N)NC(=O)[C@H](CCCNC(=N)N)NC(=O)[C@H](CCCCN)NC(=O)[C@H](CCCCN)NC(=O)[C@@H](CCCNC(=N)N)NC(=O)CNC(=O)[C@@H](N)Cc1ccc(O)cc1)C(=O)N[C@@H](CCC(=O)O)C(=O)N[C@@H](CO)C(=O)N[C@@H](CC(=O)O)C(=O)N[C@H](C(=O)O)C(C)C [Compound I1] (H-YG[dR]KKR[dR]E[Arg(Me)]RR[dK]LSSIESDV-OH)?
**A.** half-life ([3]; With tPA T1/2): 9.18 h; half-life ([3]; Without tPA T1/2): 18.6 h

**Q.** With CC[C@H](C)[C@H](NC(=O)[C@H](CO)NC(=O)[C@H](CO)NC(=O)[C@H](CC(C)C)NC(=O)[C@@H](CCCCN)NC(=O)[C@H](CCCNC(=N)N)NC(=O)[C@H](CCCNC(=N)N)NC(=O)[C@@H](CCCNC(=N)N)NC(=O)[C@H](CCC(N)=O)NC(=O)[C@@H](CCCNC(=N)N)NC(=O)[C@H](CCCNC(=N)N)NC(=O)[C@H](CCCCN)NC(=O)[C@H](CCCCN)NC(=O)[C@@H](CCCNC(=N)N)NC(=O)CNC(=O)[C@@H](N)Cc1ccc(O)cc1)C(=O)N[C@@H](CCC(=O)O)C(=O)N[C@@H](CO)C(=O)N[C@@H](CC(=O)O)C(=O)N[C@H](C(=O)O)C(C)C [NoNo-42, reference compound] (H-YG[dR]KKR[dR]Q[dR]RR[dK]LSSIESDV-OH; N-terminus and C-terminus assumed) as the compound, how does the pIC50 [1] read?
**A.** 5.01

**Q.** What about the “CREA, percentage change compared to vehicle control group” value ([4]; rat, in vivo, iv, 30 mg/kg) of the same compound?
**A.** 308.8%

**Q.** What about the “UREA, percentage change compared to vehicle control group” value ([4]; rat, in vivo, iv, 30 mg/kg) of the same compound?
**A.** 237.9%

**Q.** And the half-life at 10 μM [3]?
**A.** 6.88 h

**Q.** For N=C(N)NCCC[C@H](NC(=O)[C@H](CCCNC(=N)N)NC(=O)[C@H](CCCNC(=N)N)NC(=O)[C@H](CCC(N)=O)NC(=O)[C@H](CCCNC(=N)N)NC(=O)[C@H](CCCNC(=N)N)NC(=O)[C@H](CCCCN)NC(=O)[C@H](CCCCN)NC(=O)[C@H](CCCNC(=N)N)NC(=O)CNC(=O)[C@@H](N)Cc1ccc(O)cc1)C(=O)O [TAT-1, reference compound], which half-life at 10 μM [5, 9] is on record?
**A.** 1.52 h

**Q.** With N=C(N)NCCC[C@H](NC(=O)[C@@H](CCCNC(=N)N)NC(=O)[C@H](CCC(N)=O)NC(=O)[C@@H](CCCNC(=N)N)NC(=O)[C@H](CCCNC(=N)N)NC(=O)[C@H](CCCCN)NC(=O)[C@H](CCCCN)NC(=O)[C@@H](CCCNC(=N)N)NC(=O)CNC(=O)[C@@H](N)Cc1ccc(O)cc1)C(=O)O [TAT-3] (H-YG[dR]KKR[dR]Q[dR]R-OH) as the compound, how does the half-life at 10 μM ([5]; plasma) read?
**A.** 21.7 h

**Q.** What about the half-life at 10 μM ([5]; plasma with added rt-PA) of the same compound?
**A.** 27.5 h

**Q.** For N=C(N)NCCC[C@H](NC(=O)[C@H](CCCNC(=N)N)NC(=O)[C@@H](CCCNC(=N)N)NC(=O)[C@H](CCC(=O)O)NC(=O)[C@@H](CCCNC(=N)N)NC(=O)[C@H](CCCNC(=N)N)NC(=O)[C@H](CCCCN)NC(=O)[C@H](CCCCN)NC(=O)[C@@H](CCCNC(=N)N)NC(=O)CNC(=O)[C@@H](N)Cc1ccc(O)cc1)C(=O)O [TAT-4], which half-life at 10 μM [5, 10] is on record?
**A.** 14.9 h

**Q.** What about the half-life at 10 μM [5, 9] of the same compound?
**A.** 11.9 h

**Q.** Which results are given for CNC(=N)NCCC[C@H](NC(=O)[C@H](CCC(N)=O)NC(=O)[C@@H](CCCNC(=N)N)NC(=O)[C@H](CCCNC(=N)N)NC(=O)[C@H](CCCCN)NC(=O)[C@H](CCCCN)NC(=O)[C@@H](CCCNC(=N)N)NC(=O)CNC(=O)[C@@H](N)Cc1ccc(O)cc1)C(=O)N[C@@H](CCCNC(=N)N)C(=O)N[C@@H](CCCNC(=N)N)C(=O)O [TAT-5]?
**A.** half-life at 10 μM [5, 10]: 12.3 h; half-life at 10 μM [5, 9]: > 33.3 h

**Q.** Which half-life at 10 μM [5, 10] does the source give for CNC(=N)NCCC[C@H](NC(=O)[C@H](CCC(=O)O)NC(=O)[C@@H](CCCNC(=N)N)NC(=O)[C@H](CCCNC(=N)N)NC(=O)[C@H](CCCCN)NC(=O)[C@H](CCCCN)NC(=O)[C@@H](CCCNC(=N)N)NC(=O)CNC(=O)[C@@H](N)Cc1ccc(O)cc1)C(=O)N[C@@H](CCCNC(=N)N)C(=O)N[C@@H](CCCNC(=N)N)C(=O)O [TAT-6] here?
**A.** 4.3 h

**Q.** What about the half-life at 10 μM [5, 9] of the same compound?
**A.** 2.83 h
